Legend:
Assay type in all cases: cell-based
RSV Long strain = experiment: RSV CPE reduction assay; conditions: human respiratory syncytial virus, 144 h; CPE assay; HEp-2 cells infected with RSV Long strain, m.o.i. 0.01; 6 days; CCK-8 readout; read-out: EC50
Protocol: CPE reduction assays were performed as described by Sidwell and Huffman et al., Appl Microbiol. (1971) 22(5):797-801 with slight modifications. HEp-2 cells (ATCC) at a concentration of 6000 cell/well were infected with RSV Long strain (ATCC) at a multiplicity of infection (m.o.i.) of 0.01, and each of the test compounds were provided to duplicate wells at final concentrations starting from 100 μM using ⅓ stepwise dilutions. For each compound, two wells were set aside as uninfected, untreated cell controls (CC), and two wells per test compound received virus only as a control for virus replication (VC). […] At the end of the incubation, 20 μl of cell counting kit-8 reagent (CCK-8, Dojindo Molecular Technologies, Inc.) were added to each well. After 4 hour incubation, the absorbance was measured in each well according to manufacturer's instruction, and the 50% effective concentration (EC50) was calculated by using regression analysis, based on the mean O.D. at each concentration of compound.
(§1) Compounds of Formula (I) and Formula (II) are active in the assay as noted in Tables 2 and 3, where ‘A’ indicates an EC50<1 μM, ‘B’ indicates an EC50 of >1 μM and <10 μM, ‘C’ indicates an EC50>10 μM and <100 μM, and ‘D’ indicates an EC50>100 μM.

RSV A2 = experiment: RSV RT-PCR based assay; conditions: human respiratory syncytial virus; RT-PCR assay; HEp-2 cells; 24 hour compound pre-incubation; RSV A2 at MOI 0.1; 4 days after infection; viral load; read-out: EC50
Protocol: RT-PCR based assays were performed in HEp-2 cells (ATCC: CCL-23) at a concentration of 20000 cell/well were plated in 96 well plates and incubated overnight. Each of the test compounds were ⅓ serially diluted and dosed to HEp-2 cells in duplicates. The highest final concentration for each compound was 100 uM. After 24 hour compound pre-incubation, RSV A2 (ATCC: VR-1540) at MOI of 0.1 was added. Two wells per compound were set aside as uninfected, untreated cell controls (CC), and four wells per test compound received virus only as a control for virus replication (VC). The assay was stopped 4 days after virus infection and conditioned media was removed for viral RNA isolation. The quantities of the RSV virus were measured by real-time PCR using a set of RSV specific primers and probe. The data was analyzed with Prism software with EC50 defined as drug concentration that reduced the viral load 50% from the viral control (VC).
as §1

Influenza A/WSN/33 virus = experiment: Influenza antiviral assay (real-time PCR); conditions: A549 cells, 24 hour pre-incubation, 72 hours, read-out: Percent Inhibition

SMILES	EC50 (RSV Long strain) [µM]	EC50 (RSV A2) [µM]	inhibition at 30 µM (Influenza A/WSN/33 virus) [%]
[N-]=[N+]=N[C@]1(CO)O[C@@H](n2cnc3c(=O)[nH]c(N)nc32)[C@H](O)[C@@H]1O [Compound 10, 4′-azidoguanosine]	< 1	< 1	83.3
[N-]=[N+]=N[C@]1(CO)O[C@@H](n2cnc3c(=O)[nH]c(N)nc32)[C@H](F)[C@@H]1O [Compound 27, 4′-azido-2′-deoxy-2′-fluoroguanosine]	< 1	< 1	91
[N-]=[N+]=N[C@]1(CO)O[C@@H](n2cnc3c(N)ncnc32)[C@H](F)[C@@H]1O [Compound 28, 4′-azido-2′-deoxy-2′-fluoroadenosine]	> 100	> 100	94.6
C[C@@]1(n2ccc(N)nc2=O)O[C@@](CO)(N=[N+]=[N-])[C@@H](O)[C@H]1O [Compound 50, 4′-azido-1′-methylcytidine]	> 100	> 100	90.9

From patent US8877731B2, “Azido nucleosides and nucleotide analogs” (Alios Biopharma, Inc., priority 2010, dated 2014)
